Results: ChEMBL document CHEMBL4680168, “The development of a novel transforming growth factor-β (TGF-β) inhibitor that disrupts ligand-receptor interactions” (Eur J Med Chem, 2020)
One block for each compound: values may come before it. The source made the active and inactive calls. The calls are words filed in the database; no cut-off is given here.

Assays:
[1] = Cytotoxicity against MLEC assessed as reduction in cell viability at 50 uM by MTT assay; conditions: neovison vison
[2] = Inhibition of TGFbeta signalling pathway in MLEC preincubated for 30 mins followed by TGF-beta1 addition and measured after 18 hrs by Steady-Glo luciferase assay; set-up: species or system Neovison vison
A549 [3] = experiment: Inhibition of TGFBR1/TGFBR2 protein-protein interaction in human A549 cells assessed as reduction in TGF-beta1-induced MMP-2 expression preincubated for 2 hrs followed by TGF-beta1 addition and measured after 4 hrs by Western blot analysis; type: cell-based; conditions: filed as antagonist, dose 20-80 µM, time 6.0 hrs
A549 [4] = experiment: Inhibition of TGFBR1/TGFBR2 protein-protein interaction in human A549 cells assessed as reduction in TGF-beta1-induced alpha-SMA expression preincubated for 2 hrs followed by TGF-beta1 addition and measured after 4 hrs by Western blot analysis; type: cell-based; conditions: filed as antagonist, dose 20-80 µM, time 6.0 hrs
A549 [5] = experiment: Inhibition of TGFBR1/TGFBR2 protein-protein interaction in human A549 cells assessed as inhibition of TGF-beta1-induced Akt phosphorylation at 40 uM preincubated for 2 hrs followed by TGF-beta1-stimulation and measured after 4 hrs by Western blot analysis; type: cell-based; conditions: filed as antagonist, time 6.0 hrs
A549 [6] = experiment: Inhibition of TGFBR1/TGFBR2 protein-protein interaction in human A549 cells assessed as reduction in TGF-beta1-induced cell migration expression preincubated for 2 hrs followed by TGF-beta1 addition and measured after 48 hrs by scratch-wound healing assay; type: cell-based; conditions: filed as antagonist, dose 20-80 µM, time 50.0 hrs
A549 [7] = experiment: Cytotoxicity against human A549 cells assessed as reduction in cell viability at 20 to 80 uM up to 48 hrs by MTT assay; type: cell-based; conditions: a549, 48 h, dose 20-80 µM
A549 [8] = experiment: Inhibition of TGFBR1/TGFBR2 protein-protein interaction in human A549 cells assessed as inhibition of TGF-beta1-induced Erk1/Erk2 phosphorylation at 40 uM incubated for 6 hrs by Western blot analysis; type: cell-based; conditions: filed as antagonist
A549 [9] = experiment: Inhibition of TGFBR1/TGFBR2 protein-protein interaction in human A549 cells assessed as inhibition of TGF-beta1-induced Smad2/Smad3 phosphorylation at 40 uM preincubated for 2 hrs followed by TGF-beta1-stimulation and measured after 4 hrs by Western blot analysis; type: cell-based; conditions: filed as antagonist, time 6.0 hrs
A549 [10] = experiment: Inhibition of TGFBR1/TGFBR2 protein-protein interaction in human A549 cells assessed as inhibition of TGF-beta1-induced Smad2/Smad3 phosphorylation at 40 uM incubated for 6 hrs by Western blot analysis; type: cell-based
A549 [11] = experiment: Inhibition of TGFBR1/TGFBR2 protein-protein interaction in human A549 cells assessed as reduction in TGF-beta1-induced cell migration expression at 40 to 80 uM preincubated for 2 hrs followed by TGF-beta1 addition and measured after 24 hrs by scratch-wound healing assay; type: cell-based; conditions: filed as antagonist, dose 40-80 µM, time 26.0 hrs
A549 [12] = experiment: Inhibition of TGFBR1/TGFBR2 protein-protein interaction in human A549 cells assessed as reduction in TGF-beta1-induced cell migration expression preincubated for 2 hrs followed by TGF-beta1 addition and measured after 24 hrs by crystal violet staining based transwell assay; conditions: filed as antagonist, dose 20-80 µM, time 26.0 hrs
A549 [13] = experiment: Inhibition of TGFBR1/TGFBR2 protein-protein interaction in human A549 cells assessed as reduction in TGF-beta1-induced fibronectin expression preincubated for 2 hrs followed by TGF-beta1 addition and measured after 4 hrs by Western blot analysis; type: cell-based; conditions: filed as antagonist, dose 20-80 µM, time 6.0 hrs
A549 [14] = experiment: Inhibition of TGFBR1/TGFBR2 protein-protein interaction in human A549 cells assessed as inhibition of TGF-beta1-induced Erk1/Erk2 phosphorylation at 40 uM preincubated for 2 hrs followed by TGF-beta1-stimulation and measured after 4 hrs by Western blot analysis; type: cell-based; conditions: filed as antagonist, time 6.0 hrs
[15] = Inhibition of TGFBR1/TGFBR2 protein-protein interaction in MLEC cells assessed as inhibition of TGF-beta1-induced dimer formation preincubated for 30 mins followed by TGF-beta1-stimulation and measured after overnight by pathhunter assay; type: cell-based, Neovison vison; conditions: Neogale vison
A549 [16] = experiment: Inhibition of TGFBR1/TGFBR2 protein-protein interaction in human A549 cells assessed as inhibition of TGF-beta1-induced Akt phosphorylation at 40 uM incubated for 6 hrs by Western blot analysis; type: cell-based; conditions: filed as antagonist

Compound: Cc1c(CNCc2ccccc2)c(C)c(CNCc2ccccc2)c(C)c1CNCc1ccccc1
Activity [1]: Toxic

Compound: COC(=O)c1cccc(CNCc2c(C)c(CNCc3cccc(C(=O)OC)c3)c(C)c(CNCc3cccc(C(=O)OC)c3)c2C)c1
Activity [1]: Toxic

Compound: COC(=O)c1ccc(CNCc2c(C)c(CNCc3ccc(C(=O)OC)cc3)c(C)c(CNCc3ccc(C(=O)OC)cc3)c2C)cc1
Activity [1]: Toxic

IC50 [2]: Not Active
Compound: COC(=O)c1ccc(NCc2c(C)c(CNc3ccc(C(=O)OC)cc3)c(C)c(CNc3ccc(C(=O)OC)cc3)c2C)cc1
Activity [1]: Non-Toxic

IC50 ([2]; read-out: IC50): > 50 µM
Compound: CC(=O)c1ccc(NCc2c(C)c(CNc3ccc(C(C)=O)cc3)c(C)c(CNc3ccc(C(C)=O)cc3)c2C)cc1
Activity [1]: Non-Toxic

IC50 [2]: Not Active
Compound: CC(=O)c1cccc(NCc2c(C)c(CNc3cccc(C(C)=O)c3)c(C)c(CNc3cccc(C(C)=O)c3)c2C)c1
Activity [1]: Non-Toxic

IC50 ([2]; read-out: IC50): 31.9 µM
Compound: Cc1c(CNc2cccc(C(N)=O)c2)c(C)c(CNc2cccc(C(N)=O)c2)c(C)c1CNc1cccc(C(N)=O)c1
Activity [1]: Non-Toxic

IC50 [2]: Not Active
Compound: Cc1c(CNc2ccc(C(N)=O)cc2)c(C)c(CNc2ccc(C(N)=O)cc2)c(C)c1CNc1ccc(C(N)=O)cc1
Activity [1]: Non-Toxic

IC50 ([2]; read-out: IC50): 38.1 µM
Compound: COC(=O)c1cccc(NCc2c(C)c(CNc3cccc(C(=O)OC)c3)c(C)c(CNc3cccc(C(=O)OC)c3)c2C)c1
Activity [1]: Non-Toxic

IC50 ([2]; read-out: IC50): 18 µM
Compound: c1ccc(CN2COc3c(c4c(c5c3CN(Cc3ccccc3)CO5)CN(Cc3ccccc3)CO4)C2)cc1

IC50 ([2]; read-out: IC50): 5.3 µM
IC50 [15]: 23.6 µM
Compound: Cc1c(CNc2ccccc2)c(C)c(CNc2ccccc2)c(C)c1CNc1ccccc1
Activity (A549 [3]): Dose-dependent effect
Activity (A549 [4]): Dose-dependent effect
Activity (A549 [5]): Active
Activity (A549 [6]): Dose-dependent effect
Activity (A549 [7]): Non-Toxic
Activity (A549 [8]): Active
Activity (A549 [9]): Active
Activity [1]: Non-Toxic
Activity (A549 [10]): inactive
Activity (A549 [11]): Active
Activity (A549 [12]): Dose-dependent effect
Activity (A549 [13]): Dose-dependent effect
Activity (A549 [14]): Active
Activity (A549 [16]): Active
